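1) Cells in 96-well plates. 2) Compound, 48 h, 5 concentrations. 3) Linear interpolation between surrounding doses. 4) Unreached endpoint = highest concentration. At the TGI there is no net growth.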
Key:
Assay in all cases: NCI anticancer screen, dose series, 48 h
SN12C renal = system: SN12C renal
DU-145 prostate = system: DU-145 prostate
UO-31 renal = system: UO-31 renal
SK-OV-3 ovarian = system: SK-OV-3 ovarian
NCI-H460 lung = system: NCI-H460 lung
HCC-2998 colon = system: HCC-2998 colon
OVCAR-3 ovarian = system: OVCAR-3 ovarian
COLO 205 colon = system: COLO 205 colon
SNB-19 CNS = system: SNB-19 CNS
MOLT-4 leukemia = system: MOLT-4 leukemia
CCRF-CEM leukemia = system: CCRF-CEM leukemia
LOX IMVI melanoma = system: LOX IMVI melanoma
SW-620 colon = system: SW-620 colon
HS 578T breast = system: HS 578T breast
MDA-MB-231 breast = system: MDA-MB-231 breast
SR leukemia = system: SR leukemia
A549 NSCLC = system: A549 NSCLC
KM12 colon = system: KM12 colon
SF-539 CNS = system: SF-539 CNS
K-562 leukemia = system: K-562 leukemia
NCI-H522 lung = system: NCI-H522 lung
T-47D breast = system: T-47D breast
ACHN renal = system: ACHN renal
786-0 renal = system: 786-0 renal
SK-MEL-5 melanoma = system: SK-MEL-5 melanoma
PC-3 prostate = system: PC-3 prostate
SK-MEL-28 melanoma = system: SK-MEL-28 melanoma
NCI-H226 lung = system: NCI-H226 lung
M14 melanoma = system: M14 melanoma
HCT-15 colon = system: HCT-15 colon
HOP-92 NSCLC = system: HOP-92 NSCLC
A498 renal = system: A498 renal
SF-268 CNS = system: SF-268 CNS
SF-295 CNS = system: SF-295 CNS
HT29 colon = system: HT29 colon
OVCAR-4 ovarian = system: OVCAR-4 ovarian
OVCAR-8 ovarian = system: OVCAR-8 ovarian
CAKI-1 renal = system: CAKI-1 renal
SK-MEL-2 melanoma = system: SK-MEL-2 melanoma
TK-10 renal = system: TK-10 renal
HCT-116 colon = system: HCT-116 colon
NCI/ADR-RES ovarian = system: NCI/ADR-RES ovarian
RPMI-8226 leukemia = system: RPMI-8226 leukemia
HOP-62 NSCLC = system: HOP-62 NSCLC
IGROV1 ovarian = system: IGROV1 ovarian
HL-60(TB) leukemia = system: HL-60(TB) leukemia
NCI-H23 lung = system: NCI-H23 lung
U251 CNS = system: U251 CNS
UACC-257 melanoma = system: UACC-257 melanoma
MDA-N = system: MDA-N
MDA-MB-435 = system: MDA-MB-435
EKVX NSCLC = system: EKVX NSCLC
RXF 393 renal = system: RXF 393 renal
MCF7 breast = system: MCF7 breast
BT-549 breast = system: BT-549 breast
MALME-3M melanoma = system: MALME-3M melanoma
UACC-62 melanoma = system: UACC-62 melanoma
SNB-75 CNS = system: SNB-75 CNS
OVCAR-5 ovarian = system: OVCAR-5 ovarian

Measured: TGI

Cc1cccc2c(=O)c3cccc([C@@H](C)C(=O)O)c3oc12
not listed: RXF 393 renal | MCF7 breast | BT-549 breast | MALME-3M melanoma | UACC-62 melanoma | SNB-75 CNS | OVCAR-5 ovarian
> 100 µM: all other assays above

c1ccc2cc3c(cc2c1)nc1ccccn13
not listed: NCI-H460 lung | LOX IMVI melanoma | MDA-MB-231 breast | NCI-H522 lung | A498 renal | HT29 colon | OVCAR-4 ovarian | CAKI-1 renal | SK-MEL-2 melanoma
> 100 µM: all other assays above
